# Measurements: article PMC5433425 (PeerJ, 2017)
# Where “and” joins values, the source holds several entries; their conditions need not be identical. Equal values may be shown once. Peptide text beside a SMILES is read from it. * marks the point of attachment. βNA = c1ccc2cc(N*)ccc2c1
# Tests used:
# [1] = Cytotoxicity, AlamarBlue method; assay type: cell-based, human; conditions: human, human monocyte-derived macrophages, three days of exposure, AlamarBlue
# Description: (§1) The blood was collected from healthy donors and the peripheral blood mononuclear cells were isolated by Ficoll-Paque Plus (GE Healthcare, Freiburg, Germany) density gradient centrifugation as previously described ([Machado et al., 2016]). […] Fresh medium was added at day 4 post isolation. The effect of the compounds on human monocyte-derived macrophages was evaluated using the AlamarBlue method (Molecular Probes, Life Technologies) ([O’Brien et al., 2000]), and by measuring the release of the lactate dehydrogenase (LDH) into the culture supernatants using the Pierce LDH Cytotoxicity Assay (ThermoFisher Scientific, Waltham, MA, USA) ([Chan, Moriwaki & Rosa, 2013]) according to the manufacturer’s instructions. Briefly, 5 × 10^4 cells were seeded in 96-well microplates treated with the compounds, and incubated at 37 °C with 5% CO2. After 72 h of treatment, the cell viability was assessed. For the AlamarBlue method, the dye was added to each well to a final concentration of 10% and incubated overnight at 37 °C and 5% CO2. The fluorescence was measured with a 540/35 excitation filter and a 590/20 emission filter in a Synergy HT multi-mode microplate reader. The release of LDH from damaged cells into culture supernatants, as an indicator of cytotoxicity, was measured in serum-free medium. Here the amount of enzyme activity correlates to the number of damaged cells. The specific lysis was calculated as follows: (treated cells—spontaneous LDH release)/ (maximum LDH release—spontaneous LDH release) ×100.
# [2] = test system: human monocyte-derived macrophages; assay: Cytotoxicity, AlamarBlue method; assay type: cell-based; conditions: for AlamarBlue fluorescence 530/25,590/35 (raw well reading): 72 h, listed as PAN
# Description: as §1
# [3] = test system: human monocyte-derived macrophages; assay: Cytotoxicity, LDH release; assay type: cell-based; conditions: raw well reading, listed as PAN
# Description: as §1
# [4] = concentration 10 (unit not given)
# [5] = concentration 20 (unit not given)
# [6] = concentration 40 (unit not given)
# [7] = concentration 80 (unit not given)
# [8] = concentration 160 (unit not given)
# [9] = concentration 320 (unit not given)
# [10] = concentration 640 (unit not given)
# [11] = concentration 1280 (unit not given)
# [12] = concentration 2560 (unit not given)
smiles,measurement,setting,value
N=C(N)NCCC[C@H](NC(=O)[C@@H](N)Cc1ccccc1)C(=O)Nc1ccc2ccccc2c1 [PAβN] (H-Phe-Arg-βNA),CC50 at 3 days,[1]; read-out: CC50,1.27 mM
same,CC90 at 3 days,[1]; read-out: CC90,3.6 mM
same,"AlamarBlue fluorescence 530/25,590/35 (raw well reading)",[2]; 10 uM,5144 and 4515 and 5435
same,"AlamarBlue fluorescence 530/25,590/35 (raw well reading)",[2]; 20 uM,4321 and 4369 and 4263
same,"AlamarBlue fluorescence 530/25,590/35 (raw well reading)",[2]; 40 uM,4438 and 4039 and 4264
same,"AlamarBlue fluorescence 530/25,590/35 (raw well reading)",[2]; 80 uM,3781 and 3772 and 3994
same,"AlamarBlue fluorescence 530/25,590/35 (raw well reading)",[2]; 160 uM,3584 and 4033 and 3977
same,"AlamarBlue fluorescence 530/25,590/35 (raw well reading)",[2]; 320 uM,3356 and 3644 and 3382
same,"AlamarBlue fluorescence 530/25,590/35 (raw well reading)",[2]; 640 uM,3650 and 3381 and 3133
same,"AlamarBlue fluorescence 530/25,590/35 (raw well reading)",[2]; 1280 uM,2305 and 2619 and 2474
same,CC10,"[2]; three days of exposure, AlamarBlue",0.44771 mM
same,Pierce LDH absorbance 490,[3]; [4],0.218 and 0.187 and 0.203
same,Pierce LDH absorbance 630,[3]; [4],0.102 and 0.108 and 0.118
same,Pierce LDH absorbance 490,[3]; [5],0.185 and 0.182
same,Pierce LDH absorbance 630,[3]; [5],0.094 and 0.098 and 0.113
same,Pierce LDH absorbance 490,[3]; [6],0.213 and 0.202 and 0.198
same,Pierce LDH absorbance 630,[3]; [6],0.106 and 0.115 and 0.108
same,Pierce LDH absorbance 490,[3]; [7],0.221 and 0.196 and 0.201
same,Pierce LDH absorbance 630,[3]; [7],0.11 and 0.102 and 0.112
same,Pierce LDH absorbance 490,[3]; [8],0.25 and 0.23 and 0.207
same,Pierce LDH absorbance 630,[3]; [8],0.098 and 0.096 and 0.105
same,Pierce LDH absorbance 490,[3]; [9],0.226 and 0.222 and 0.196
same,Pierce LDH absorbance 630,[3]; [9],0.099 and 0.109 and 0.1
same,Pierce LDH absorbance 490,[3]; [10],0.201 and 0.208 and 0.215
same,Pierce LDH absorbance 630,[3]; [10],0.096 and 0.11 and 0.112
same,Pierce LDH absorbance 490,[3]; [11],0.434 and 0.517 and 0.508
same,Pierce LDH absorbance 630,[3]; [11],0.175 and 0.213 and 0.218
same,Pierce LDH absorbance 490,[3]; [12],0.612 and 0.538 and 0.513
same,Pierce LDH absorbance 630,[3]; [12],0.334 and 0.228 and 0.206
